Experimental data taken from patent US11850220B2 (Augusta University Research Institute, Inc., priority 2020, dated 2023).

Assays:
Type in all cases: in vivo
[1] = system: carrageenan-induced paw edema; experiment: carrageenan-induced paw edema technique (anti-inflammatory); details: for Observed (1/property): 1/(% inhibition of edema thickness at 3 h effect); on Observed (1/property): test concentration or dose not given here; on Potency (% Inhibition relative to indomethacin at 3 h effect): test concentration or dose not given here
From the text: Anti-inflammatory properties of the ibuprofen-amino acid conjugate (5a-j) and ibuprofen-amino acid-4-aminophenol conjugates 7a-j were studied by the standard carrageenan-induced paw edema technique (Naumov, R. N. et al., Bioorg. Med. Chem. Lett. 2015, 25, 2314-2320; Tiwari, A. D. et al., Org. Biomol. Chem. 2014, 12, 7238-7249).

[2] = system: acetic acid-induced abdominal writhing; experiment: acetic acid-induced abdominal writhing technique (peripheral analgesic); details: for Potency: Relative to indomethacin; for % Inhibition/protection / Writing reflex ± SEM: in vivo; on % Inhibition/protection: test concentration or dose not given here; on Writing reflex ± SEM: test concentration or dose not given here
hot plate = hot plate technique (central analgesic); details: for Potency: Relative to indomethacin at 120 min.
animal gastric mucosa = experiment: ulcerogenic liability; details: in vivo
[3] = % inhibition of edema thickness at 3 h effect, Table 7
[4] = anti-inflammatory property (% inhibition of edema at 3 h), Table 8

| Structure (SMILES) | Observed (1/property) ([1]; Table 7) | % inhibition of edema ([1]; 1 h) [%] | Mean edema thickness ([1]; 1 h) [mm] | % inhibition of edema ([1]; 2 h) [%] | Mean edema thickness ([1]; 2 h) [mm] | % inhibition of edema ([1]; 3 h) [%] | Mean edema thickness ([1]; 3 h) [mm] | % inhibition of edema ([1]; 4 h) [%] | Mean edema thickness ([1]; 4 h) [mm] | % inhibition of edema ([1]; 24 h) [%] | Mean edema thickness ([1]; 24 h) [mm] | Observed property [1, 3] [%] | Observed property [1, 4] [%] | Potency (% Inhibition relative to indomethacin at 3 h effect) [1] [%] | Potency [2] | % Inhibition/protection [2] [%] | Writing reflex ± SEM [2] | % protection (hot plate; After 30 min.) | Latency period ± SEM (hot plate; After 30 min.) [s] | % protection (hot plate; After 60 min.) | further results |
| --- | --- | --- | --- | --- | --- | --- | --- | --- | --- | --- | --- | --- | --- | --- | --- | --- | --- | --- | --- | --- | --- |
| CC[C@H](C)C(NC(=O)C(C)c1ccc(CC(C)C)cc1)C(=O)O (stereo in doubt) [Compound 5f, (2-(4-Isobutylphenyl)propanoyl)-L-isoleucine] | 0.01613 | 27 | 0.90 ± 0.05 | 29 | 1.07 ± 0.06 | 62 | 0.50 ± 0.03 | 29 | 0.89 ± 0.04 | 47 | 0.10 ± 0.03 | 62 | 62 | 78 | 85 | 46.8 | 51.8 ± 1.6 | (14.9) % | 2.78 ± 0.05 | (15.2) % | Latency period ± SEM (hot plate; After 60 min.): 2.57 ± 0.07 s; % protection (hot plate; After 90 min.): (25.9) %; Latency period ± SEM (hot plate; After 90 min.): 2.77 ± 0.05 s; % protection (hot plate; After 120 min.): (48.9) %; Latency period ± SEM (hot plate; After 120 min.): 3.26 ± 0.04 s; Potency (hot plate): 86 |
| CC(C)Cc1ccc(C(C)C(=O)NCC(=O)O)cc1 (stereo not drawn) [Compound 5a, (2-(4-Isobutylphenyl)propanoyl)glycine] | 0.01389 | 53 | 0.58 ± 0.02 | 66 | 0.51 ± 0.04 | 72 | 0.37 ± 0.06 | 67 | 0.41 ± 0.04 | 68 | 0.06 ± 0.01 | 72 | 72 | 90 | 83 | 45.6 | 52.9 ± 1.3 | (15.3) % | 2.79 ± 0.03 | (28.3) % | Latency period ± SEM (hot plate; After 60 min.): 2.86 ± 0.04 s; % protection (hot plate; After 90 min.): (29.1) %; Latency period ± SEM (hot plate; After 90 min.): 2.84 ± 0.02 s; % protection (hot plate; After 120 min.): (29.7) %; Latency period ± SEM (hot plate; After 120 min.): 2.84 ± 0.05 s; Potency (hot plate): 52; % Incidence of ulcer divided by 10 (animal gastric mucosa): 0; Average of ulcer number (animal gastric mucosa): 0; Average severity of ulcer (animal gastric mucosa): 0; Number of animals with ulcer (animal gastric mucosa): 0; Ulcer index (animal gastric mucosa): 0 |
| CC(C)Cc1ccc(C(C)C(=O)N[C@@H](C)C(=O)O)cc1 (stereo partly drawn) [Compound 5b, (2-(4-Isobutylphenyl)propanoyl)-L-alanine] | 0.01923 | 34 | 0.81 ± 0.04 | 37 | 0.95 ± 0.02 | 52 | 0.63 ± 0.01 | 51 | 0.61 ± 0.03 | 32 | 0.13 ± 0.03 | 52 | 52 | 65 | 80 | 43.8 | 54.7 ± 2.0 | (12.8) % | 2.73 ± 0.03 | (17.0) % | Latency period ± SEM (hot plate; After 60 min.): 2.61 ± 0.12 s; % protection (hot plate; After 90 min.): (20.9) %; Latency period ± SEM (hot plate; After 90 min.): 2.66 ± 0.01 s; % protection (hot plate; After 120 min.): (21.9) %; Latency period ± SEM (hot plate; After 120 min.): 2.67 ± 0.06 s; Potency (hot plate): 39 |
| CC(C)Cc1ccc(C(C)C(=O)NCCC(=O)O)cc1 (stereo not drawn) [Compound 5c, 3-(2-(4-Isobutylphenyl)propanamido)propanoic acid] | 0.01887 | 43 | 0.70 ± 0.03 | 29 | 1.07 ± 0.07 | 53 | 0.61 ± 0.04 | 36 | 0.80 ± 0.03 | 21 | 0.15 ± 0.01 | 53 | 53 | 66 | 8 | 4.2 | 93.2 ± 1.4 | (16.5) % | 2.82 ± 0.04 | (35.0) % | Latency period ± SEM (hot plate; After 60 min.): 3.01 ± 0.02 s; % protection (hot plate; After 90 min.): (20.5) %; Latency period ± SEM (hot plate; After 90 min.): 2.65 ± 0.05 s; % protection (hot plate; After 120 min.): (20.1) %; Latency period ± SEM (hot plate; After 120 min.): 2.63 ± 0.10 s; Potency (hot plate): 36 |
| CC(C)Cc1ccc(C(C)C(=O)N[C@@H](Cc2ccccc2)C(=O)O)cc1 (stereo partly drawn) [Compound 5e, (2-(4-Isobutylphenyl)propanoyl)-L-phenylalanine] | 0.01613 | 25 | 0.92 ± 0.07 | 19 | 1.22 ± 0.08 | 62 | 0.50 ± 0.04 | 30 | 0.88 ± 0.05 | 74 | 0.05 ± 0.02 | 62 | 62 | 78 | 84 | 46.0 | 52.5 ± 1.2 | (24.0) % | 3.00 ± 0.04 | (30.5) % | Latency period ± SEM (hot plate; After 60 min.): 2.91 ± 0.01 s; % protection (hot plate; After 90 min.): (35.5) %; Latency period ± SEM (hot plate; After 90 min.): 2.98 ± 0.03 s; % protection (hot plate; After 120 min.): (48.4) %; Latency period ± SEM (hot plate; After 120 min.): 3.25 ± 0.02 s; Potency (hot plate): 86 |
| CC(C)Cc1ccc(C(C)C(=O)N[C@@H](CC(C)C)C(=O)O)cc1 (stereo partly drawn) [Compound 5g] | 0.01724 | 5 | 1.17 ± 0.07 | 24 | 1.15 ± 0.06 | 58 | 0.55 ± 0.04 | 40 | 0.75 ± 0.05 | 42 | 0.11 ± 0.04 | 58 | 58 | 73 | 89 | 48.9 | 49.7 ± 1.2 | (27.7) % | 3.09 ± 0.04 | (28.7) % | Latency period ± SEM (hot plate; After 60 min.): 2.87 ± 0.03 s; % protection (hot plate; After 90 min.): (4.1) %; Latency period ± SEM (hot plate; After 90 min.): 2.29 ± 0.05 s; % protection (hot plate; After 120 min.): (3.7) %; Latency period ± SEM (hot plate; After 120 min.): 2.27 ± 0.03 s; Potency (hot plate): 7 |
| CC(C)Cc1ccc(C(C)C(=O)N[C@H](C(=O)O)C(C)C)cc1 (stereo partly drawn) [Compound 5h] | 0.01754 | 11 | 1.09 ± 0.08 | 14 | 1.30 ± 0.07 | 57 | 0.56 ± 0.05 | 49 | 0.64 ± 0.06 | 84 | 0.03 ± 0.02 | 57 | 57 | 72 | 54 | 29.6 | 68.5 ± 2.0 | (12.8) % | 2.73 ± 0.05 | (20.6) % | Latency period ± SEM (hot plate; After 60 min.): 2.69 ± 0.04 s; % protection (hot plate; After 90 min.): (9.5) %; Latency period ± SEM (hot plate; After 90 min.): 2.41 ± 0.02 s; % protection (hot plate; After 120 min.): (6.4) %; Latency period ± SEM (hot plate; After 120 min.): 2.33 ± 0.02 s; Potency (hot plate): 11 |
| CSCC[C@H](NC(=O)C(C)c1ccc(CC(C)C)cc1)C(=O)O (stereo partly drawn) [Compound 5i, (2-(4-Isobutylphenyl)propanoyl)-L-methionine] | 0.02222 | 24 | 0.93 ± 0.04 | 54 | 0.69 ± 0.05 | 45 | 0.71 ± 0.04 | 12 | 1.10 ± 0.06 | 79 | 0.04 ± 0.01 | 45 | 45 | 56 | 40 | 22.2 | 75.7 ± 1.9 | (32.2) % | 3.20 ± 0.03 | (51.1) % | Latency period ± SEM (hot plate; After 60 min.): 3.35 ± 0.06 s; % protection (hot plate; After 90 min.): (61.4) %; Latency period ± SEM (hot plate; After 90 min.): 3.55 ± 0.07 s; % protection (hot plate; After 120 min.): (13.2) %; Latency period ± SEM (hot plate; After 120 min.): 2.48 ± 0.04 s; Potency (hot plate): 23 |
